Test results: patent publication US5968940A, “Retinoids and methods of use of same” (priority 1996, dated 1999)

Assays:
fetus absorption in mice = test: Effect on fetus absorption in mice; type: in vivo
Protocol: (§1) Female mice were examined by vaginal smear the morning after being caged with male mice, and if sperm or a vaginal plug was discovered, then the mice were determined to be pregnant. The retinoids were administered at the dosage indicated starting on the seventh day of pregnancy and continued once a day for the next ten days. On the 20th day after the female mice were determined to be pregnant, they were sacrificed by cervical dislocation. Both sides of the uterus were checked and the number of living embryos, dead embryos, and absorbed embryos were counted. The living embryos were further examined for bone abnormalities.

[1] = test system: bone abnormalities in mouse fetus; test: Bone abnormalities in mouse fetus; type: in vivo
Protocol: as §1
After the embryos became transparent, they were dissected and their skeletons were checked by observation under a microscope.

[2] = test system: human acute myeloid leukemia (AML), neuroblastoma, teratocarcinoma, melanoma, and rat rhabdomyosarcoma cells; conditions: Smith et al. 1992; cited from earlier work
[3] = test system: Human promyelocytic leukemia HL-60 cells; test: Cell differentiation of HL-60 cells, nitroblue tetrazolium (NBT) reduction / morphology; type: cell-based
Protocol: Human promyelocytic leukemia HL-60 cells were cultured in RPMI-1640 medium supplemented by 10% heat-inactivated calf serum and 100 U/ml of penicillin plus 100 μg/ml of streptomycin. The flasks containing cells and medium were incubated in an incubator with 5% CO2 at 37° C. Log phase cells were seeded into the medium at a concentration of 1.2×10^5to 1.4×10^5 cells per ml and cultured in flasks containing 5 ml of medium. Each group consisted of three flasks. Different concentrations of coumarin-retinoids were added. At intervals following the addition of coumarin-retinoids to the cultures, a small portion of cells was removed and live cells were counted under a light microscope using a dye-exclusionmethod with trypan blue. Cell differentiation was judged in terms of morphology and nitroblue tetrazolium (NBT) reduction.
For a determination of NBT reducing activity, a portion of the coumarin-retinoid-treated cells was removed at intervals following treatment and centrifuged. After centrifugation, 0.5 ml of 0.1% NBT (containing 100 ng TPA) was added to each tube. The contents of the test tubes were then incubated for 1 hour at 37° C. Cell smears were prepared from the cell sediment and stained using the Wright-Giemsa technique. For each smear prepared, 200 cells were isolated for examination under a light microscope with an oil immersion lens. Cells stained with blue-black granules were considered NBT-positive cells. The 50% differentiation or effective concentration (ED50 or EC50) is shown in terms of molar (M) concentration of the […] tested.
For a determination of cell morphology, a cell smear was prepared at intervals following treatment of cells for each coumarin-retinoid concentration group using the Wright-Giemsa stain technique. Stained cells were counted and classified under a light microscope with an oil immersion lens. After treatment with coumarin-retinoids, the morphological development of HL-60 cells proceeded toward mature granulocytes. This development was manifested by decreased cell volume; a lower nuclei to cytoplasm ratio; smaller or missing nuclei; concentration of chromatin; and the appearance of a certain proportion of intermediate and late granuloblasts (progranulocytes), elongated rod granulocytes, and granulocytes with branched nuclei.
The protocols of Examples 14 and 21 were used, for the NBT and MTT assays, respectively.

[4] = test system: lipid peroxidation of rat liver microsome; test: Inhibition of Fe+2/Cys induced lipid peroxidation of rat liver microsome; type: biochemical
Protocol: Lipid peroxidation was induced by adding 1 mM FeSO4 and 10 mM cysteine to the microsome fraction of rat liver with the incubations being carried out at 37° C. for 30 minutes in a reaction mixture containing 10 mM phosphate buffer (pH 7.4). The reaction was terminated by the addition of 0.3 ml of 20% trichloroacetic acid solution. Thiobarbituric acid was then added and the mixture was boiled for 10 minutes. After cooling the test tubes under running tap water, the optical density at 532 nm was measured. Lipid peroxidation in both the treated groups and the control group was expressed in nmol MDA/mg protein. The percentage inhibition indicates the anti-oxidation properties of the coumarin retinoids tested.

[5] = test system: Ornithine decarboxylase (ODC); test: Croton oil induced ornithine decarboxylase (ODC) activity in mouse epidermis; type: in vivo; conditions: ICR mice, single dose pretreatment; FIG. 1, n=3
Protocol: ICR mice (6-8 weeks old) were pretreated with a single dose of coumarin retinoid. On the third day, the animals received a topical application of 0.2 ml of 1% croton oil in acetone. All animals were sacrificed five hours after the croton oil treatment and the epidermis was separated by a brief heat treatment at 52° C. for 30 seconds and minced in a blender. The cell suspension and broth were separated by a centrifugation at 30,000×g for 30 seconds and the supernatant was obtained. Ornithine decarboxylase (ODC) enzyme activity was determined by measuring the release of CO2 from L-(^14 C)-ornithine and expressed as nmole CO2 /30 min/mg protein and the results for coumarin retinoid I-10 and I-6 are shown in FIG. 1. […] ODC activity is a critical parameter for monitoring cancer chemoprevention or promotion.

[6] = test system: croton oil induced ear edema in mice; test: Croton oil induced ear edema in mice; type: in vivo
Protocol: ICR mice (body weight 18-20 grams) were used. Each group consisted of 10 mice. After three dosage treatments, the left ears of the mice in both the treated group and the control group were painted with 2% croton oil in 0.05 ml ether. All the mice were sacrificed six hours later and the ears of both sides were punched by a corneal knife and weighed, the difference of the ear weight of both sides for each mouse was calculated. The t- Student test was used for statistical calculation. Croton oil induced ear edema is a classical assay for evaluation of cancer promotion.

chondrosarcoma = test: Growth of chondrosarcoma in rats; type: in vivo; conditions: for Body Weight final: in g (unit assumed)
Source text: Transplantable chondrosarcomas obtained from Dr. Trown, Hoffman--La Roche Institute of Molecular Biology and Wistar rats obtained from the Breeding Center of Experimental Animals, Chinese Academy of Medical Sciences were used. According to the routine transplantation protocol as described in Cancer Treatment Reports 60(11):1647-1653 (1976) where the small pieces of chondrosarcoma tumor were implanted subcutaneously in the right inguinal region of rats using a trocar. Tumor-bearing rats were randomized to a control group and a treated group. Each group consisted of ten rats. […] Sixty days after transplantation, the rats were sacrificed and the tumor weight was determined. The inhibition rate was calculated according to the following formula: [formula]

[7] = test system: Salmonella typhimurium strain TA100; test: Anti-mutagenicity (Ames), TA100; type: cell-based; conditions: MMS mutagen alone, 0.5 μl/plate
Protocol: (§2) An antimutagenicity assay was conducted according to the method developed by Ames et al. using Salmonella typhimurium strains TA 102 and TA 100 and mammalian microsomal enzymes. Beta-naphthoflavone and phenobarbital-induced rat liver supernatant (9000×g S-9 fraction) was used as the enzyme source for metabolic activation. The night before the experiment, certified bacterial solution (assessed for its biological characteristics and donated by Professor Ames) was inoculated into petri dishes. The petri dishes were then incubated for 15 hours at 37° C. From each petri dish, 0.1 ml of the bacterial solution was removed and added to sterile test tubes. To these test tubes, 0.1 ml of different concentrations of coumarin retinoids and 0.5 ml of either S-9 mixed solution or phosphate buffer were then added. The final solution for each test tube was incubated in a water bath at 37° C. for 20 minutes before adding 2 ml of agar solution. After thorough mixing, the solution was transferred into petri dishes and incubated once again at 37° C. for 48 hours. After incubation, the number of colonies in each petri dish were counted. The revertant numbers of the bacteria in control and treated groups were compared and the inhibition rate was calculated.

[8] = test system: Salmonella typhimurium strain TA102; test: Anti-mutagenicity (Ames), TA102; type: cell-based; conditions: MMS mutagen alone, 0.5 μl/plate
Protocol: as §2

[9] = 10 mg/kg once a day from day 7 of pregnancy

In the case of CC1=C(/C=C/C(C)=C/C=C/C(C)=C/C(=O)O)C(C)(C)CCC1 [All Trans RA, all-trans-retinoic acid, reference compound], the “Fetus Absorption (%)” value (fetus absorption in mice; [9]) is reported as 73.7%, the “Fetus Absorption, absorbed number/implanted number” value (fetus absorption in mice; [9]) is reported as 73/99 and the “Absorbed Number” value (fetus absorption in mice; 15 mg/kg, implanted number 186, 15 pregnant mice) is reported as 111. The “Delayed Calcification, Occipital delay/fetus number” value ([1]; 101 mg/kg (so in the source)) was 6/16, the “Delayed Calcification, Sternum delay/fetus number” value ([1]; 101 mg/kg (so in the source)) was 16/16 and the “induction of cell differentiation” value [2] was “induces cell differentiation”.

With CC(=O)c1cc2ccc(OC(=O)/C=C(C)/C=C/C=C(C)/C=C/C3=C(C)CCCC3(C)C)c(C(=O)O)c2oc1=O [Compound I-5] the “NBT (+) %” value ([3]; 10^-4 M) was 69%, the “NBT (+) %” value ([3]; 10^-5 M) was 89% and the “NBT (+) %” value ([3]; 10^-7 M) was 41%. For the same molecule, the “Inhibition (%) of lipid peroxidation” value ([4]; 1 μM) was 7.3%, the “Inhibition (%) of lipid peroxidation” value ([4]; 10 μM) was 16.6% and the “Lipid Peroxidation” value ([4]; 10 μM, n = 3, p < 0.05) was 1.95 ± 0.18 μM MDA/mg protein. For the same molecule, the “Inhibition (%) of lipid peroxidation” value ([4]; 100 μM) was 36.6% and the “Lipid Peroxidation” value ([4]; 100 μM, n = 3, p < 0.01) was 1.43 ± 0.16 μM MDA/mg protein.

With CC(=O)c1cc2cc(Cl)c(OC(=O)/C=C(C)/C=C/C=C(C)/C=C/C3=C(C)CCCC3(C)C)cc2oc1=O [Compound I-6] the “NBT (+) %” value ([3]; 10^-4 M) was 96%, the “NBT (+) %” value ([3]; 10^-5 M) was 81% and the “NBT (+) %” value ([3]; 10^-6 M) was 78%. The “NBT (+) %” value ([3]; 10^-7 M) was 31%, the “NBT (+) %” value ([3]; 10^-8 M) was 2% and the “inhibition of croton oil induced ODC activity” value [5] was “significantly inhibited the ODC activity induced by croton oil”. The “Inhibition (%) of lipid peroxidation” value ([4]; 20 μM) was 9.6%, the “Inhibition (%) of lipid peroxidation” value ([4]; 200 μM) was 13.5% and the “Lipid Peroxidation” value ([4]; 200 μM, n = 3, p < 0.05) was 2.03 ± 0.16 μM MDA/mg protein. For the same molecule, the “Ear Edema (x ± SD)” value ([6]; 50 mg/kg) was 13.4 ± 3.1 mg, the “IR (%)” value ([6]; 50 mg/kg) was 19% and the “Ear Edema (x ± SD)” value ([6]; 100 mg/kg) was 15.1 ± 2.7 mg. For the same molecule, the “IR (%)” value ([6]; 100 mg/kg) was 9%.

For CC(=O)c1cc2c(OC(=O)/C=C(C)/C=C/C=C(C)/C=C/C3=C(C)CCCC3(C)C)cc(OC(=O)/C=C(C)/C=C/C=C(C)/C=C/C3=C(C)CCCC3(C)C)cc2oc1=O [Compound I-10], the “NBT (+) %” value ([3]; 6.4 × 10^-6 M) was 99%, the “NBT (+) %” value ([3]; 6.4 × 10^-7 M) was 96% and the “NBT (+) %” value ([3]; 6.4 × 10^-8 M) was 82%. For the same molecule, the “NBT (+) %” value ([3]; 6.4 × 10^-9 M) was 33%, the “NBT (+) %” value ([3]; 6.4 × 10^-10 M) was 10% and the “Fetus Absorption, absorbed number/implanted number” value (fetus absorption in mice; 20 mg/kg once a day from day 7 of pregnancy) was 0/104. The “Fetus Absorption, absorbed number/implanted number” value (fetus absorption in mice; 40 mg/kg once a day from day 7 of pregnancy) was 0/107, the “inhibition of croton oil induced ODC activity” value [5] was “significantly inhibited the ODC activity induced by croton oil” and the “Ear Edema (x ± SD)” value ([6]; 50 mg/kg) was 14.2 ± 2.3 mg. For the same molecule, the “IR (%)” value ([6]; 50 mg/kg) was 14%, the “Ear Edema (x ± SD)” value ([6]; 100 mg/kg) was 11.3 ± 3.0 mg and the “IR (%)” value ([6]; 100 mg/kg) was 32%. The “Delayed Calcification, Occipital delay/fetus number” value ([1]; 20 mg/kg) was 22/66, the “Delayed Calcification, Sternum delay/fetus number” value ([1]; 20 mg/kg) was 14/66 and the “Delayed Calcification, Occipital delay/fetus number” value ([1]; 40 mg/kg) was 15/81. The “Delayed Calcification, Sternum delay/fetus number” value ([1]; 40 mg/kg) was 21/81, the “Inhibition rate (%)” value (chondrosarcoma; 5 mg/kg P.O. (Table 13)) was 14.8% and the “Tumor Weight” value (chondrosarcoma; 5 mg/kg P.O. (Table 13)) was 12.1 grams. The Animals final (chondrosarcoma; 5 mg/kg P.O., initial 10 (Table 13)) was 10, the “Body Weight final” value (chondrosarcoma; 5 mg/kg P.O., initial 97.8 (Table 13)) was 258.4 and the “Tumor Weight” value (chondrosarcoma; 10 mg/kg P.O.) was 12.8 grams. For the same molecule, the Animals final (chondrosarcoma; 10 mg/kg P.O., initial 10) was 9, the “Body Weight final” value (chondrosarcoma; 10 mg/kg P.O., initial 98.2) was 248.0 and the “Tumor Weight” value (chondrosarcoma; 20 mg/kg P.O.) was 8.2 grams. The Animals final (chondrosarcoma; 20 mg/kg P.O., initial 10) was 9 and the “Body Weight final” value (chondrosarcoma; 20 mg/kg P.O., initial 97.4) was 253.1.

For COS(C)(=O)=O [MMS], the “his+ -revertants/per plate, TA100” value [7] was 1083.7 ± 99.3 revertants/per plate and the “his+ -revertants/per plate, TA102” value [8] was 1760 ± 288.4 revertants/per plate.
